Assay results from ChEMBL document CHEMBL1131481, “Novel 3-aralkyl-7-(amino-substituted)-1,2,3-triazolo[4,5-d]pyrimidines with high affinity toward A1 adenosine receptors” (J Med Chem, 1998).

Molecular target: T1, Adenosine receptor A1 (Bos taurus, UniProt P28190)
T1 sequence (P28190 whole entry): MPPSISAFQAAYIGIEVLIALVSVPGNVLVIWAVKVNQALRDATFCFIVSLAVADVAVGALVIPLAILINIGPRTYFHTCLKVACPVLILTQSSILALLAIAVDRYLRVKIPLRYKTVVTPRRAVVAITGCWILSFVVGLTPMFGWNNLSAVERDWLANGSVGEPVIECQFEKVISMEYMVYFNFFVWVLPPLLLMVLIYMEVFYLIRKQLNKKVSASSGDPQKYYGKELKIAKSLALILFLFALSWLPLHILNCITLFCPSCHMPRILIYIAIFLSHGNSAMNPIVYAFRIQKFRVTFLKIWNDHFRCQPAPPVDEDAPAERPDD
Experiment: Compound was tested for binding affinity at Adenosine A1 receptor in bovine brain cortical membranes using [3H](R)-(-)-N6-(2-phenylisopropyl)adenosine (R-PIA) as radioligand
Assay type: cell membranes

Ki [µM]	Structure (SMILES)
1.67	Cc1ccc(Nc2ncnc3c2nnn3CCc2ccccc2)cc1
5.88	Cc1cccc(Nc2ncnc3c2nnn3Cc2ccccc2Cl)c1
0.119	Cc1ccc(Nc2ncnc3c2nnn3Cc2ccccc2Cl)cc1
3.32	Clc1cccc(Nc2ncnc3c2nnn3CCc2ccccc2)c1
0.073	CC(Cc1ccccc1)Nc1ncnc2c1nnn2Cc1ccccc1Cl (centres undefined)
4.38	Cc1cccc(Nc2ncnc3c2nnn3CCc2ccccc2)c1
1.1	Cc1cccc(Nc2ncnc3c2nnn3Cc2ccccc2)c1
0.468	CC(Nc1ncnc2c1nnn2Cc1ccccc1Cl)c1ccccc1 (centres undefined)
0.443	O=[N+]([O-])c1cccc(Nc2ncnc3c2nnn3Cc2ccccc2)c1
> 10	O=[N+]([O-])c1ccc(CNc2ncnc3c2nnn3Cc2ccccc2Cl)cc1
0.463	Clc1cccc(Nc2ncnc3c2nnn3Cc2ccccc2)c1
> 10	Nc1ccc(CNc2ncnc3c2nnn3Cc2ccccc2Cl)cc1
1.83	Clc1cccc(Nc2ncnc3c2nnn3Cc2ccccc2Cl)c1
0.039	C[C@H](Cc1ccccc1)Nc1ncnc2c1nnn2Cc1ccccc1Cl
0.502	Cc1ccc(Nc2ncnc3c2nnn3Cc2ccccc2)cc1
> 10	Clc1ccccc1Cn1nnc2c(NNc3ccccc3)ncnc21
3.3	O=[N+]([O-])c1cccc(Nc2ncnc3c2nnn3Cc2ccccc2Cl)c1

The next lines start with the compound.

Structure (SMILES)	Ki [µM]
Nc1ccc(CCNc2ncnc3c2nnn3Cc2ccccc2)cc1	1.54
c1ccc(Cn2nnc3c(NC4CCCCC4)ncnc32)cc1	0.121
Clc1ccccc1Cn1nnc2c(NC3CCCC3)ncnc21	0.021
CC(Cc1ccccc1)Nc1ncnc2c1nnn2Cc1ccccc1 (centres undefined)	0.575
CC1CCCC(Nc2ncnc3c2nnn3Cc2ccccc2Cl)C1 (centres undefined)	0.102
c1ccc(Cn2nnc3c(NCC4CCCCC4)ncnc32)cc1	2.79
O=[N+]([O-])c1ccc(CNc2ncnc3c2nnn3CCc2ccccc2)cc1	0.245
CC(Nc1ncnc2c1nnn2CCc1ccccc1)c1ccccc1 (centres undefined)	2.2
c1ccc(CCn2nnc3c(NC4CCCCC4)ncnc32)cc1	0.216
Nc1ccc(CNc2ncnc3c2nnn3Cc2ccccc2)cc1	9.5
CC(Nc1ncnc2c1nnn2Cc1ccccc1)c1ccccc1 (centres undefined)	0.438
c1ccc(Cn2nnc3c(NC4CCCC4)ncnc32)cc1	0.127
Clc1ccccc1Cn1nnc2c(NC3CCCCC3)ncnc21	0.043
O=[N+]([O-])c1cccc(Nc2ncnc3c2nnn3CCc2ccccc2)c1	2.25
Clc1ccccc1Cn1nnc2c(NCC3CCCCC3)ncnc21	4.26
CC1CCCC(Nc2ncnc3c2nnn3Cc2ccccc2)C1 (centres undefined)	0.77
C[C@H](Cc1ccccc1)Nc1ncnc2c1nnn2Cc1ccccc1	0.274
O=[N+]([O-])c1ccc(CCNc2ncnc3c2nnn3Cc2ccccc2)cc1	> 10
c1ccc(CCn2nnc3c(NC4CCCC4)ncnc32)cc1	0.176
CC(Cc1ccccc1)Nc1ncnc2c1nnn2CCc1ccccc1 (centres undefined)	2.49
O=[N+]([O-])c1ccc(CCNc2ncnc3c2nnn3Cc2ccccc2Cl)cc1	> 10
O=[N+]([O-])c1ccc(CNc2ncnc3c2nnn3Cc2ccccc2)cc1	> 10
